pEC50: −log10 of the molar value.
Target: human S1P1 receptor (Homo sapiens, UniProt P21453)
Experiment: GTPγS assay to determine EC50 values
Format: biochemical
Details: 35S-GTPγS binding, membrane preparations of CHO cells expressing recombinant human S1P1 receptor
Protocol: GTPγS binding assays are performed in 96 well microtiter plates (Nunc, 442587) in a final volume of 200 μl, using membrane preparations of CHO cells expressing recombinant human S1P1 receptor. Assay conditions are 20 mM Hepes (Fluka, 54461), 100 mM NaCl (Fluka, 71378), 5 mM MgCl2 (Fluka, 63064), 0.1% BSA (Calbiochem, 126609), 1 μM GDP (Sigma, G-7127), 2.5% DMSO (Fluka, 41644), 50 pM ^35S-GTPγS (Amersham Biosciences, SJ1320). The pH is 7.4. Test compounds are dissolved and diluted in 100% DMSO and pre-incubated at room temperature for 30 min in 150 μl of the above assay buffer, in the absence of ^35S-GTPγS. After addition of 50 μl of ^35S-GTPγS, the assay is incubated for 1 h at rt. The assay is terminated by transfer of the reaction mixture to a Multiscreen plate (Millipore, MAHFC1H60) using a cell harvester from Packard Biosciences, and the plates are washed with ice-cold 10 mM Na2HPO4/NaH2PO4 (70%/30%), dried, sealed at the bottom and, after addition of 25 μl MicroScint20 (Packard Biosciences, order#6013621), sealed on the top. Membrane-bound ^35S-GTPγS is measured with a TopCount from Packard Biosciences.
EC50 is the concentration of agonist inducing 50% of the maximal specific ^35S-GTPγS binding. Specific binding is determined by subtracting non-specific binding from maximal binding. […]
The EC50 values were determined according to the method described above: […]

Chain of human S1P1 receptor (P21453 whole entry): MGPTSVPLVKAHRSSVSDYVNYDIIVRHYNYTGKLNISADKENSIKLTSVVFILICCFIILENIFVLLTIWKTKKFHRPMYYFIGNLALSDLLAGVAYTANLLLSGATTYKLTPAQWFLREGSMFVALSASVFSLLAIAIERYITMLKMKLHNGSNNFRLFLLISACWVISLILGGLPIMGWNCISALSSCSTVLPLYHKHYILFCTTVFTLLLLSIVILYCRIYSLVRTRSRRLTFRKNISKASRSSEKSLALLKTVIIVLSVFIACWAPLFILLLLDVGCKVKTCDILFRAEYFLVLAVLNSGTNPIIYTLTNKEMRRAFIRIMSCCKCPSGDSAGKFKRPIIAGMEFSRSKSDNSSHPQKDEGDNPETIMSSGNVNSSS

| pEC50 | SMILES |
| --- | --- |
| 10.00 | Cc1cc(-c2nc(-c3cc(C)c(OCC(O)CNC(=O)CO)c(C)c3)no2)ccc1OC(C)C (centres unmarked) [Example 6] |
| 9.10 | Cc1cc(-c2nc(-c3cc(C)c(OCC(O)CNC(=O)CO)c(C)c3)no2)ccc1CC(C)C (centres unmarked) [Example 20] |

Reference: patent US8044076B2, “Phenyl derivatives and their use as immunomodulators” (Actelion Pharmaceuticals Ltd., priority 2006, dated 2011)
